From US10508104B2, “6-hydroxy-5-(phenyl/heteroarylsulfonyl)pyrimidin-4(1H)-one as APJ agonists” (Bristol-Myers Squibb Company, priority 2016, dated 2019) come the findings set out here.

human APJ receptor, sequence (P35414 whole entry): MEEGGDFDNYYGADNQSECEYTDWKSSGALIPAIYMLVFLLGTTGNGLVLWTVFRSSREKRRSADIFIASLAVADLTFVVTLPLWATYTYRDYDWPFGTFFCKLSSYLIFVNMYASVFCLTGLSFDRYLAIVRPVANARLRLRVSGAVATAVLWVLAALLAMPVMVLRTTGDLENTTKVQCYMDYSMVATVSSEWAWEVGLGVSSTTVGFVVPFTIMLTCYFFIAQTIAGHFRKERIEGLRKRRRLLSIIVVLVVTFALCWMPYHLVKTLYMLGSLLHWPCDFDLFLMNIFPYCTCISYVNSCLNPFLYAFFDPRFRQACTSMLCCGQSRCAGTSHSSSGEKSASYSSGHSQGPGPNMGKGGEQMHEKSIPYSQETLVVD

The target in the first test is human APJ receptor (Homo sapiens (Human), UniProt P35414). Kind of test: Intracellular cAMP accumulation assay (APJ hcAMP, HTRF). It is filed as cell-based. The settings on record: HEK293 cells stably expressing human APJ receptor; inhibition of forskolin-mediated cAMP production; read-out: Human APJ cAMP EC50 Potency range. The method, boiled down:
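HEK293 cells stably expressing human APJ, 5,000 per well, incubated 30 min at rt with compound, […] and 2 μM forskolin. cAMP measured by HTRF against a cAMP standard curve as inhibition of forskolin-driven production. EC50 from variable-slope sigmoidal fit.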
In general terms: cAMP levels reflect the balance of adenylyl cyclase and phosphodiesterase activity.
Usually EC50 stands for the midpoint of the concentration-response curve. `CCCCc1nc(=O)c(S(=O)(=O)c2ccc(-c3ccnc(F)c3F)cc2)c(O)n1[C@@H](CC)c1cccc(C#N)c1` [Example 506, 3-[(1S)-1-{2-butyl-5-[4-(2,3-difluoropyridin-4-yl)benzenesulfonyl]-6-hydroxy-4-oxo-1,4-dihydropyrimidin-1-yl}propyl]benzonitrile]: the EC50 lay within 0.01 to 10 nM.
Turning to `COC[C@@H](c1ccccc1)n1c(COC(C)C)nc(=O)c(S(=O)(=O)c2ccc(-c3ccncc3C#N)c(F)c2)c1O` [Example 405, 4-[2-fluoro-4-({6-hydroxy-1-[(1R)-2-methoxy-1-phenylethyl]-4-oxo-2-[(propan-2-yloxy)methyl]-1,4-dihydropyrimidin-5-yl}sulfonyl)phenyl]pyridine-3-carbonitrile], the EC50 fell in the range of 0.01 to 10 nM.
Same read-out and setting: the result for `CCCCc1nc(=O)c(S(=O)(=O)c2ccc(-c3ccnc(F)c3C)cc2)c(O)n1[C@@H](CC)c1ccc(F)c(C#N)c1` [Example 438, 5-[(1S)-1-{2-butyl-5-[4-(2-fluoro-3-methylpyridin-4-yl)benzenesulfonyl]-6-hydroxy-4-oxo-1,4-dihydropyrimidin-1-yl}propyl]-2-fluorobenzonitrile] reads 0.01 to 10 nM; that for `CCCCc1nc(=O)c(S(=O)(=O)c2ccc(-c3cccnc3C)cn2)c(O)n1[C@@H](CC)c1cccc(C#N)c1` [Example 455, 3-[(1S)-1-[2-butyl-6-hydroxy-5-({2′-methyl-[3,3′-bipyridine]-6-yl}sulfonyl)-4-oxo-1,4-dihydropyrimidin-1-yl]propyl]benzonitrile], 0.01 to 10 nM; that for `CC(C)OCc1nc(=O)c(S(=O)(=O)c2ccc(-c3ccncc3C#N)cc2)c(O)n1[C@H](c1cccc(C#N)c1)C1CC1` [Example 416, 4-[4-({1-[(S)-(3-cyanophenyl)(cyclopropyl)methyl]-6-hydroxy-4-oxo-2-[(propan-2-yloxy)methyl]-1,4-dihydropyrimidin-5-yl}sulfonyl)phenyl]pyridine-3-carbonitrile], 0.01 to 10 nM.
On the same count and under the same terms, the result for `COC[C@@H](c1cc(F)cc(F)c1)n1c(COC(C)C)nc(=O)c(S(=O)(=O)c2ccc(-c3ccncc3C#N)cc2)c1O` [Example 398, 4-[4-({1-[(1R)-1-(3,5-difluorophenyl)-2-methoxyethyl]-6-hydroxy-4-oxo-2-[(propan-2-yIoxy)methyl]-1,4-dihydropyrimidin-5-yl}sulfonyl)phenyl] pyridine-3-carbonitrile] reads 0.01 to 10 nM; that for `CCOCc1nc(=O)c(S(=O)(=O)c2ccc(-c3ccc(F)nc3C)c(F)c2)c(O)n1C(COC)c1cccc(F)c1` (stereo not drawn) [Example 375, 2-(ethoxymethyl)-5-[3-fluoro-4-(6-fluoro-2-methylpyridin-3-yl)benzenesulfonyl]-1-[1-(3-fluorophenyl)-2-methoxyethyl]-6-hydroxy-1,4-dihydropyrimidin-4-one], 0.01 to 10 nM; that for `CCCCc1nc(=O)c(S(=O)(=O)c2ccc(-c3ccccc3C(N)=O)cc2)c(O)n1[C@@H](CC)c1cccc(C#N)c1` [Example 465, 4′-({2-butyl-1-[(1S)-1-(3-cyanophenyl)propyl]-6-hydroxy-4-oxo-1,4-dihydropyrimidin-5-yl}sulfonyl)-[1,1′-biphenyl]-2-carboxamide], 0.01 to 10 nM.
`COC[C@@H](c1cccc(C#N)c1)n1c(COC(C)C)nc(=O)c(S(=O)(=O)c2ccc(-c3ccncc3C#N)cc2)c1O` [Example 404, 4-[4-({1-[(1R)-1-(3-cyanophenyl)-2-methoxyethyl]-6-hydroxy-4-oxo-2-[(propan-2-yloxy)methyl]-1,4-dihydropyrimidin-5-yl}sulfonyl)phenyl] pyridine-3-carbonitrile]: the EC50 fell in the range of 0.01 to 10 nM.

Still in this test, the particulars now being: human APJ, cAMP accumulation; read-out: Human APJ cAMP EC50 Potency range.
Regarding `CCCCc1nc(=O)c(S(=O)(=O)c2ccc(-c3cncc(F)c3)cc2)c(O)n1[C@@H](CC)c1ccc2c(c1)OCO2` [Example 218, 1-[(1S)-1-(2H-1,3-benzodioxol-5-yl)propyl]-2-butyl-5-[4-(5-fluoropyridin-3-yl)benzenesulfonyl]-6-hydroxy-1,4-dihydropyrimidin-4-one], the EC50 lay within 0.01 to 10 nM.
On the same count and under the same terms, for `CCOCc1nc(=O)c(S(=O)(=O)c2ccc(-c3ccc(F)nc3)cc2)c(O)n1[C@H]1CCc2ccccc21` [Example 325, 1-[(1S)-2,3-dihydro-1H-inden-1-yl]-2-(ethoxymethyl)-5-[4-(6-fluoropyridin-3-yl)benzenesulfonyl]-6-hydroxy-1,4-dihydropyrimidin-4-one] the value was 0.01 to 10 nM; for `CC[C@@H](c1ccccc1)n1c(C2CCCC2)nc(=O)c(S(=O)(=O)c2ccc(-c3ccc(F)nc3)cc2)c1O` [Example 280, 2-cyclopentyl-5-[4-(6-fluoropyridin-3-yl)benzenesulfonyl]-6-hydroxy-1-[(1S)-1-phenylpropyl]-1,4-dihydropyrimidin-4-one], 0.01 to 10 nM.
Same read-out and setting: for `CCCCc1nc(O)c(S(=O)(=O)c2ccc(Br)cc2)c(=O)n1[C@@H](CC)c1cccc2c1OCO2` [Example 261, 3-[(1S)-1-(2H-1,3-benzodioxol-4-yl)propyl]-5-(4-bromobenzenesulfonyl)-2-butyl-6-hydroxy-3,4-dihydropyrimidin-4-one] the value was 0.01 to 10 nM; for `CCOCc1nc(=O)c(S(=O)(=O)c2ccc(-c3cccnc3C)cc2)c(O)n1[C@H]1CCc2ccccc21` [Example 319, 1-[(1S)-2,3-dihydro-1H-inden-1-yl]-2-(ethoxymethyl)-6-hydroxy-5-[4-(2-methylpyridin-3-yl)benzenesulfonyl]-1,4-dihydropyrimidin-4-one], 0.01 to 10 nM; for `CCCCc1nc(=O)c(S(=O)(=O)c2ccc(-c3ccc(F)nc3C)cc2)c(O)n1[C@@H](C)c1ccccc1OC` [Example 240, 2-butyl-5-[4-(6-fluoro-2-methylpyridin-3-yl)benzenesulfonyl]-6-hydroxy-1-[(1S)-1-(2-methoxyphenyl)ethyl]-1,4-dihydropyrimidin-4-one], 0.01 to 10 nM.
As to `COC[C@@H](c1ccccc1)n1c(C2CCCO2)nc(=O)c(S(=O)(=O)c2ccc(Br)cc2)c1O` (stereo partly drawn) [Example 349, 5-(4-bromobenzenesulfonyl)-6-hydroxy-1-[(1R)-2-methoxy-1-phenylethyl]-2-(oxolan-2-yl)-1,4-dihydropyrimidin-4-one], the EC50 is 100 to 300 nM.
For the molecule `CC[C@@H](c1ccccc1)n1c(C2CCCC2)nc(=O)c(S(=O)(=O)c2ccc(-c3cncc(F)c3)cc2)c1O` [Example 283, 2-cyclopentyl-5-[4-(5-fluoropyridin-3-yl)benzenesulfonyl]-6-hydroxy-1-[(1S)-1-phenylpropyl]-1,4-dihydropyrimidin-4-one], the EC50 lay in the range of 0.01 to 10 nM.

Still in this test, the particulars now being: human APJ, intracellular cAMP accumulation; read-out: Human APJ cAMP EC50 Potency range.
As to `COC[C@@H](c1ccccc1)n1c(CC2CC2)nc(=O)c(S(=O)(=O)c2ccc(-c3ccnc(F)c3C)cc2)c1O` [Example 179, 2-(cyclopropylmethyl)-5-[4-(2-fluoro-3-methylpyridin-4-yl)benzenesulfonyl]-6-hydroxy-1-[(1R)-2-methoxy-1-phenylethyl]-1,4-dihydropyrimidin-4-one], the EC50 was in the range of 0.01 to 10 nM.
Still for that read-out and setting: for `CCCCc1nc(=O)c(S(=O)(=O)c2ccc(-c3ccncc3C)cc2)c(O)n1C(C)c1cccnc1` (stereo not drawn) [Example 205, 2-butyl-6-hydroxy-5-[4-(3-methylpyridin-4-yl)benzenesulfonyl]-1-[1-(pyridin-3-yl)ethyl]-1,4-dihydropyrimidin-4-one] the value was 0.01 to 10 nM.
Same read-out and setting: for `CCCCc1nc(=O)c(S(=O)(=O)c2ccc(-c3ccccc3COC)cc2)c(O)n1-c1c(OC)cccc1OC` [Example 49, 2-butyl-1-(2,6-dimethoxyphenyl)-6-hydroxy-5-{4-[2-(methoxymethyl)phenyl]benzenesulfonyl}-1,4-dihydropyrimidin-4-one] the value was 0.01 to 10 nM; for `CCCCc1nc(=O)c(S(=O)(=O)c2ccc(-c3cccc(F)n3)cc2)c(O)n1-c1c(OC)cccc1OC` [Example 42, 2-butyl-1-(2,6-dimethoxyphenyl)-5-[4-(6-fluoropyridin-2-yl)benzenesulfonyl]-6-hydroxy-1,4-dihydropyrimidin-4-one], 0.01 to 10 nM.
The same measure, in the same setting: for `CCCCc1nc(=O)c(S(=O)(=O)c2ccc(C)cc2)c(O)n1[C@@H](C)c1ccccc1` [Example 129, 2-butyl-6-hydroxy-5-(4-methylbenzenesulfonyl)-1-[(1S)-1-phenylethyl]-1,4-dihydropyrimidin-4-one] the value was 100 to 300 nM; for `CCCCc1nc(=O)c(S(=O)(=O)c2ccc(Br)cc2)c(O)n1[C@H](CC)c1ccccc1` [Example 126, 5-(4-bromobenzenesulfonyl)-2-butyl-6-hydroxy-1-[(1R)-1-phenylpropyl]-1,4-dihydropyrimidin-4-one], 10 to 100 nM; for `CCCCc1nc(=O)c(S(=O)(=O)c2ccc(-c3ccc(F)nc3C)cc2)c(O)n1[C@@H](COC)c1ccccc1` [Example 150, 2-butyl-5-[4-(6-fluoro-2-methylpyridin-3-yl)benzenesulfonyl]-6-hydroxy-1-[(1R)-2-methoxy-1-phenylethyl]-1,4-dihydropyrimidin-4-one], 0.01 to 10 nM.
In the case of `COc1cccc(OC)c1-n1c(CCC(C)C)nc(=O)c(S(=O)(=O)c2ccccc2-c2ccc(F)cc2)c1O` [Example 21, 1-(2,6-dimethoxyphenyl)-5-[2-(4-fluorophenyl)benzene-sulfonyl]-6-hydroxy-2-(3-methylbutyl)-1,4-dihydropyrimidin-4-one], the EC50 was 10 to 100 nM.
The same measure, in the same setting: for `CCCCc1nc(=O)c(S(=O)(=O)c2ccc(-c3cccnc3C)cc2)c(O)n1[C@@H](CC)c1cccc(OC)c1` [Example 165, 2-butyl-6-hydroxy-1-[(1S)-1-(3-methoxyphenyl)propyl]-5-[4-(2-methylpyridin-3-yl)benzenesulfonyl]-1,4-dihydropyrimidin-4-one] the value was 0.01 to 10 nM; for `COc1cccc(OC)c1-n1c(CCC(C)C)nc(=O)c(S(=O)(=O)c2ccccn2)c1O` [Example 99, 1-(2,6-dimethoxyphenyl)-6-hydroxy-2-(3-methylbutyl)-5-(pyridine-2-sulfonyl)-1,4-dihydropyrimidin-4-one], 0.01 to 10 nM.
